Source: US9649314B2, “Pyrimido[4,5-b]quinoline-4,5(3H,10H)-diones” (NOVARTIS AG, priority 2012, dated 2017)
Like-named read-outs stand apart in the source and are kept apart here.

Test system: CFTR-Y122X
Test: CFTR-Y122X assay (dual reporter isogenic Hek293 cell lines, Renilla luminescence readthrough)
Format: cell-based
Conditions: Homo sapiens, HEK293; for Emax at 100 µM: measured at 100 μM compound concentration (footnote d)
Method in brief: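 Stable isogenic HEK dual-reporter line (eGFP–CFTR Y122X TGA PTC–myc–Renilla); 2000 cells/well, 24 h, then compound (10 μM; tested up to 100 μM) 24 h at 37 °C. Renilla luminescence normalised to neutral (0%) and 14 mM paromomycin (100%); wildtype construct counterscreen.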

[1] = nonsense mutation suppression, 100% = 14 mM paromomycin, 24 h incubation, tested up to 100 μM, read-out: Amax [%]
[2] = nonsense mutation suppression, 24 h incubation
[3] = read-out: Amax [%]: % nonsense mutation suppression relative to paromomycin reference activity
[4] = at the above dose ranges (up to 100 μM), read-out: suppression, % of paromomycin reference activity

SMILES	Emax [1]	AC50 [2]	other results
Cn1c2ccccc2c(=O)c2c(=O)n(C3CCCC3)c(C3CCCCC3)nc21 [Example 2.28, 2-cyclohexyl-3-cyclopentyl-10-methylpyrimido[4,5-b]quinoline-4,5(3H,10H)-dione]	89%	15.1 µM	–
COc1ccccc1-n1c(C(C)C)nc2c(c(=O)c3ccccc3n2C)c1=O [Example 1.19, 2-isopropyl-3-(2-methoxyphenyl)-10-methylpyrimido[4,5-b]quinoline-4,5(3H,10H)-dione]	–	–	Emax at 12.5 µM (measured at 12.5 μM compound concentration (footnote b), read-out: Amax [%]: % nonsense mutation suppression relative to paromomycin reference activity): 16%
CC1CC(c2nc3c(c(=O)c4ccccc4n3C)c(=O)n2-c2ccccc2)C1 (centres unmarked) [Example 1.6, 10-methyl-2-(3-methylcyclobutyl)-3-phenylpyrimido[4,5-b]quinoline-4,5(3H,10H)-dione]	165%	6.1 µM	–
COc1ccc2c(c1)c(=O)c1c(=O)n(C3CCCC3)c(C(C)C)nc1n2C [Example 2.10, 3-cyclopentyl-2-isopropyl-7-methoxy-10-methylpyrimido[4,5-b]quinoline-4,5(3H,10H)-dione]	25%	25 µM	–
Cn1c2ccccc2c(=O)c2c(=O)n(C3CCCC3)c(-c3cccs3)nc21 [Example 2.43, 3-cyclopentyl-10-methyl-2-(thiophen-2-yl)pyrimido[4,5-b]quinoline-4,5(3H,10H)-dione]	17%	14.7 µM	–
CCC(CC)c1nc2c(c(=O)c3ccccc3n2C)c(=O)n1-c1ccccc1 [Example 1.9, 10-methyl-2-(pentan-3-yl)-3-phenylpyrimido[4,5-b]quinoline-4,5(3H,10H)-dione]	200%	11.7 µM	–
Cc1ccccc1-c1nc2c(c(=O)c3ccccc3n2C)c(=O)n1C1CCCCCC1 [Example 2.48, 3-cycloheptyl-10-methyl-2-(o-tolyl)pyrimido[4,5-b]quinoline-4,5(3H,10H)-dione]	–	–	Emax at 100 µM [3]: 7%
CCCCc1nc2c(c(=O)c3ccccc3n2C)c(=O)n1-c1ccccc1 [Example 1.12, 2-butyl-10-methyl-3-phenylpyrimido[4,5-b]quinoline-4,5(3H,10H)-dione]	391%	4.8 µM	–
CCCc1nc2c(c(=O)c3ccccc3n2C)c(=O)n1-c1cc(C)cc(C)c1 [Example 1.36, 3-(3,5-dimethylphenyl)-10-methyl-2-propylpyrimido[4,5-b]quinoline-4,5(3H,10H)-dione]	9%	1 µM	–
Cn1c2ccccc2c(=O)c2c(=O)n(C3CCCCCC3)c(-c3ccc(Cl)cc3Cl)nc21 [3-cycloheptyl-2-(2,4-dichlorophenyl)-10-methylpyrimido[4,5-b]quinoline-4,5(3H,10H)-dione]	–	–	Emax [4]: < 5%
CCc1nc2c(c(=O)c3ccccc3n2C)c(=O)n1-c1ccccc1 [Example 1.31, 2-ethyl-10-methyl-3-phenylpyrimido[4,5-b]quinoline-4,5(3H,10H)-dione]	177%	10.6 µM	–
CCn1c2ccccc2c(=O)c2c(=O)n(C3CCCC3)c(C(C)C)nc21 [Example 2.3, 3-cyclopentyl-10-ethyl-2-isopropylpyrimido[4,5-b]quinoline-4,5(3H,10H)-dione]	101%	21.6 µM	–
Cn1c2ccccc2c(=O)c2c(=O)n(C3CCCCCC3)c(-c3ccc(F)cc3)nc21 [3-cycloheptyl-2-(4-fluorophenyl)-10-methylpyrimido[4,5-b]quinoline-4,5(3H,10H)-dione]	–	–	Emax [4]: < 5%
CC(C)c1nc2c(c(=O)c3ccccc3n2C)c(=O)n1-c1ccccc1 [Example 1.28, 2-isopropyl-10-methyl-3-phenylpyrimido[4,5-b]quinoline-4,5(3H,10H)-dione]	361%	7.6 µM	–
Cn1c2ccccc2c(=O)c2c(=O)n(-c3cccc(Cl)c3)c(C3CCCCC3)nc21 [3-(3-chlorophenyl)-2-cyclohexyl-10-methylpyrimido[4,5-b]quinoline-4,5(3H,10H)-dione]	–	–	Emax [4]: < 5%
Cn1c2ccccc2c(=O)c2c(=O)n(-c3ccccc3)c(C3CC3)nc21 [Example 1.11, 2-cyclopropyl-10-methyl-3-phenylpyrimido[4,5-b]quinoline-4,5(3H,10H)-dione]	188%	9.1 µM	–
CC(C)c1nc2c(c(=O)c3ccccc3n2C)c(=O)n1C1CCOCC1 [Example 2.7, 2-isopropyl-10-methyl-3-(tetrahydro-2H-pyran-4-yl)pyrimido[4,5-b]quinoline-4,5(3H,10H)-dione]	–	–	Emax at 25 µM (measured at 25 μM compound concentration (footnote a), read-out: Amax [%]: % nonsense mutation suppression relative to paromomycin reference activity): 151%
Cc1ccccc1-c1nc2c(c(=O)c3ccccc3n2C)c(=O)n1C1CCCCC1 [Example 2.37, 3-cyclohexyl-10-methyl-2-(o-tolyl)pyrimido[4,5-b]quinoline-4,5(3H,10H)-dione]	–	–	Emax at 100 µM [3]: 28%
Cn1c2ccccc2c(=O)c2c(=O)n(-c3ccccc3)c(C3CCCC3)nc21 [Example 1.10, 2-cyclopentyl-10-methyl-3-phenylpyrimido[4,5-b]quinoline-4,5(3H,10H)-dione]	277%	11 µM	–
CC(C)c1nc2c(c(=O)c3cc(F)ccc3n2C)c(=O)n1-c1ccccc1 [Example 1.23, 7-fluoro-2-isopropyl-10-methyl-3-phenylpyrimido[4,5-b]quinoline-4,5(3H,10H)-dione]	139%	13.4 µM	–
CCCc1nc2c(c(=O)c3ccccc3n2C)c(=O)n1C1CCCC1 [Example 2.21, 3-cyclopentyl-10-methyl-2-propylpyrimido[4,5-b]quinoline-4,5(3H,10H)-dione]	214%	7.6 µM	–
COCCn1c2ccccc2c(=O)c2c(=O)n(-c3ccccc3)c(C(C)C)nc21 [Example 1.43, 2-isopropyl-10-(2-methoxyethyl)-3-phenylpyrimido[4,5-b]quinoline-4,5(3H,10H)-dione]	9%	–	–
CC(C)c1nc2c(c(=O)c3ccccc3n2C)c(=O)n1C1CCCCC1 [Example 2.29, 3-cyclohexyl-2-isopropyl-10-methylpyrimido[4,5-b]quinoline-4,5(3H,10H)-dione]	73%	14.3 µM	–
CC(C)c1nc2c(c(=O)c3ccccc3n2C)c(=O)n1-c1ccccc1Cl [Example 1.16, 3-(2-chlorophenyl)-2-isopropyl-10-methylpyrimido[4,5-b]quinoline-4,5(3H,10H)-dione]	200%	9.3 µM	–
Cc1cc(C)cc(-n2c(C3CCCCC3)nc3c(c(=O)c4ccccc4n3C)c2=O)c1 [2-cyclohexyl-3-(3,5-dimethylphenyl)-10-methylpyrimido[4,5-b]quinoline-4,5(3H,10H)-dione]	–	–	Emax [4]: < 5%
COCCCCc1nc2c(c(=O)c3ccccc3n2C)c(=O)n1-c1ccccc1 [Example 1.14, 2-(4-methoxybutyl)-10-methyl-3-phenylpyrimido[4,5-b]quinoline-4,5(3H,10H)-dione]	18%	–	–
COCCCc1nc2c(c(=O)c3ccccc3n2C)c(=O)n1-c1ccccc1 [Example 1.13, 2-(3-methoxypropyl)-10-methyl-3-phenylpyrimido[4,5-b]quinoline-4,5(3H,10H)-dione]	13%	–	–
Cn1c2ccccc2c(=O)c2c(=O)n(C3CCCC3)c(-c3ccccc3Cl)nc21 [Example 2.35, 2-(2-chlorophenyl)-3-cyclopentyl-10-methylpyrimido[4,5-b]quinoline-4,5(3H,10H)-dione]	31%	9.4 µM	–
CCCCCc1nc2c(c(=O)c3ccccc3n2C)c(=O)n1-c1cc(C)cc(C)c1 [Example 1.34, 3-(3,5-dimethylphenyl)-10-methyl-2-pentylpyrimido[4,5-b]quinoline-4,5(3H,10H)-dione]	16%	3.2 µM	–
